Source: patent publication US12577245B2, “Sulfonyl benzamide derivatives as Bcl-2 inhibitors” (ASCENTAGE PHARMA (SUZHOU) CO., LTD., priority 2021, dated 2026)
pIC50: −log10 of the molar value. Like-named read-outs stand apart in the source and are kept apart here.

What was measured:
Bcl-2 WT = Bcl-2 WT (Homo sapiens, UniProt P10415); assay: Bcl-2 WT inhibition, fluorescence polarization (Flu-BIM tracer) binding assay
MV-4-11 cells = assay: CCK-8 cell viability assay in MV-4-11 cells; type: cell-based; settings: Homo sapiens, MV4-11, 72 h, 10% FBS, 3 days
Protocol: MV-4-11 cells were obtained from University of Michigan. Cells were maintained in the RPMI-1640 medium with 10% FBS and 1% P/S at 37° C. and an atmosphere of 5% CO2.
• The effect of representative Compounds of the Disclosure on cell viability was determined using Cell Counting Kit-8 (CCK-8) assay (Shanghai Life iLab Biotech) according to the manufacturer's instructions. Each tested compound was serially diluted in culture medium, and 100 μL of the compound dilution was added to the corresponding well of the cell plate. 100 μL of MV-4-11 cell suspension (20000 cells/well) in culture medium were seeded into 96-well plates. The cells were incubated at 37° C. in an atmosphere of 5% CO2 for 3 days. At the end of 3 days, 20 μL of CCK-8 solution was added to each well of the plate and incubated for 1-4 hours. The plates were read at 450 nm on the Biotek plate reader. The readings were normalized to the vehicle cells, and the IC50 was calculated using GraphPad Prism 8 software.

RS4; 11Bcl-2-G101V cells = assay: CellTiter-Glo (CTG) cell viability assay in RS4;11-Bcl-2-G101V cells; type: cell-based; settings: 72 h, 10% FBS, 3 days
Protocol: RS4; 11Bcl-2-G101V, RS4; 11Bcl-2-D103E, RS4; 11Bcl-2-V156D and RS4; 11Bcl-2-G101V-D103E cells were obtained from Cobioer Biosciences. Cells were maintained in the RPMI-1640 medium with 10% FBS, 1% P/S and puromycin (1 μg/mL) at 37° C. and an atmosphere of 5% CO2.
• The effect of representative Compounds of the Disclosure on cell viability was determined using CellTiter-Glo® (CTG) luminescent cell viability assay (Promega, USA) according to the manufacturer's instructions. 95 μL of cell suspension (10000 cells/well) in culture medium were seeded into 96-well plates and cultured 4 hours. Each tested compound was serially diluted in blank culture medium, and 5 μL of the compound dilution was added to the corresponding well of the cell plate. After the addition of the tested compound, the cells were incubated at 37° C. in an atmosphere of 5% CO2 for 3 days. At the end of 3 days, 30 μL of CTG solution was added to each well of the plate and mix contents for 2 minutes on an orbital shaker. Allow the plate to incubate at room temperature for 15 mins to stabilize signal and record RLU on the Biotek plate reader. The readings were normalized to the vehicle cells, and the IC50 was calculated using GraphPad Prism 8 software.

[1] = FP, 20 nM Bcl2, 5 nM Flu-BIM, 1 h incubation, read-out: Bcl-2 w.t. (FP)

Chain of Bcl-2 WT (P10415 whole entry): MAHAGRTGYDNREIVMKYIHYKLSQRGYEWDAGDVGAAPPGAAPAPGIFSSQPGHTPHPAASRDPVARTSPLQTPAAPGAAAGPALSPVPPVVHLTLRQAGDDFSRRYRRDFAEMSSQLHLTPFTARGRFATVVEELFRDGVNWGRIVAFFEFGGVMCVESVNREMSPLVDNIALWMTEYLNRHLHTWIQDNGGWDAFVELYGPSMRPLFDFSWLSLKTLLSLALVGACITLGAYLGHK

SMILES	pIC50 (Bcl-2 WT)	pIC50 (MV-4-11 cells)	pIC50 (RS4; 11Bcl-2-G101V cells)	pIC50 (Bcl-2 WT; [1])
CC1(C)CCC(CN2CCN(c3ccc(C(=O)NS(=O)(=O)c4ccc(NC[C@H]5COCCO5)c([N+](=O)[O-])c4)c(Oc4cnc5[nH]ccc5c4)c3)CC2)=C(c2cc(C(=O)Nc3ccccc3)cs2)C1 [Example 17, (S)-5-(2-((4-(4-(((4-(((1,4-dioxan-2-yl)methyl)amino)-3-nitrophenyl)sulfonyl)carbamoyl)-3-((1H-pyrrolo[2,3-b]pyridin-5-yl)oxy)phenyl)piperazin-1-yl)methyl)-5,5-dimethylcyclohex-1-en-1-yl)-N-phenylthiophene-3-carboxamide]	7.51	6.58	5.37	
CC1(C)CCC(CN2CCN(c3ccc(C(=O)NS(=O)(=O)c4ccc(NC[C@H]5COCCO5)c([N+](=O)[O-])c4)c(Oc4cnc5[nH]ccc5c4)c3)CC2)=C(c2cc(NC(=O)c3ccccc3)cs2)C1 [Example 18, (S)—N-((4-(((1,4-dioxan-2-yl)methyl)amino)-3-nitrophenyl)sulfonyl)-2-((1H-pyrrolo[2,3-b]pyridin-5-yl)oxy)-4-(4-((2-(4-benzamidothiophen-2-yl)-4,4-dimethylcyclohex-1-en-1-yl)methyl)piperazin-1-yl)benzamide]		6.49	5.69	7.43
CC1(C)CCC(CN2CCN(c3ccc(C(=O)NS(=O)(=O)c4ccc(NC[C@H]5COCCO5)c([N+](=O)[O-])c4)c(Oc4cnc5[nH]ccc5c4)c3)CC2)=C(c2cc(Nc3ncccn3)cs2)C1 [Example 19, (S)—N-((4-(((1,4-dioxan-2-yl)methyl)amino)-3-nitrophenyl)sulfonyl)-2-((1H-pyrrolo[2,3-b]pyridin-5-yl)oxy)-4-(4-((4,4-dimethyl-2-(4-(pyrimidin-2-ylamino)thiophen-2-yl)cyclohex-1-en-1-yl)methyl)piperazin-1-yl)benzamide]		6.86	6.01	7.61
CC1(C)CCC(CN2CCN(c3ccc(C(=O)NS(=O)(=O)c4ccc(NCC5CCOCC5)c([N+](=O)[O-])c4)c(Oc4cnc5[nH]ccc5c4)c3)CC2)=C(c2csc(CN3CCOCC3)c2)C1 [Example 21, 2-((1H-pyrrolo[2,3-b]pyridin-5-yl)oxy)-4-(4-((4,4-dimethyl-2-(5-(morpholinomethyl)thiophen-3-yl)cyclohex-1-en-1-yl)methyl)piperazin-1-yl)-N-((3-nitro-4-(((tetrahydro-2H-pyran-4-yl)methyl)amino)phenyl)sulfonyl)benzamide]		6.49	5.42	7.57
CC1(C)CCC(CN2CCN(c3ccc(C(=O)NS(=O)(=O)c4ccc(NC[C@H]5COCCO5)c([N+](=O)[O-])c4)c(Oc4cnc5[nH]ccc5c4)c3)CC2)=C(c2cc(CN3CCOCC3)cs2)C1 [Example 22, (S)—N-((4-(((1,4-dioxan-2-yl)methyl)amino)-3-nitrophenyl)sulfonyl)-2-((1H-pyrrolo[2,3-b]pyridin-5-yl)oxy)-4-(4-((4,4-dimethyl-2-(4-(morpholinomethyl)thiophen-2-yl)cyclohex-1-en-1-yl)methyl)piperazin-1-yl)benzamide]		7.08	6.36	7.60
CC1(C)CCC(CN2CCN(c3ccc(C(=O)NS(=O)(=O)c4ccc(NC[C@H]5CC[C@@](C)(O)CC5)c([N+](=O)[O-])c4)c(Oc4cnc5[nH]ccc5c4)c3)CC2)=C(c2cc(CN3CCOCC3)cs2)C1 [Example 23, 2-((1H-pyrrolo[2,3-b]pyridin-5-yl)oxy)-4-(4-((4,4-dimethyl-2-(4-(morpholinomethyl)thiophen-2-yl)cyclohex-1-en-1-yl)methyl)piperazin-1-yl)-N-((4-((((1s,4s)-4-hydroxy-4-methylcyclohexyl)methyl)amino)-3-nitrophenyl)sulfonyl)benzamide]		6.74	6.03	7.80
